Data: patent EP1206494B1, “COMPUTATIONAL DESIGN METHODS FOR MAKING MOLECULAR MIMETICS” (SYNT:EM S.A., priority 1999, dated 2001)
One block for each molecule: values may come before it. Where a SMILES comes first, the peptide text is derived from it. Bridges are numbered along the chain shown (N, C = ends). Mpa = O=C(O)CCS

How the values were obtained:
HIV-1-LAI strain [1] = assay type: cell-based; settings: dose independent, non-linear behavior
Protocol: Mononucleated cells were isolated from peripheral blood of a healthy donor (and seronegative for HIV and hepatitis viruses) with a gradient of Ficoll-Hypaque. The PBMCs were activated by […] of phytohemaglutinine-P (PHA-P, Difco Laboratories, Detroit, USA) during three days, then cultured at 200,000 cells per well in a 96-well plate, in a culture medium A, complemented by 20 IU/ml of recombinant interleukin-2 (rHuIL-2, Roche Products, Mannheim, Germany). […]
PBMCs were infected over 1 hour at 37°C with a 10 000 tissue culture infectious dose 50% (TCID50) of the lymphocytary tropism reference strain HIV-1-LAI. At the end of the incubation, cells were washed twice with medium A. The HIV-1 strain was exclusively amplified, in the Neurovirology Service, with Umbilical Blood Mononucleated Cells (UBMC) activated with PHA-P, and the TCID50 was calculated using the Kärber formula. […]
(§1) The activities of these compounds were compared to the Q4120 reference antibody and to AZT. […] The anti-HIV activity of AZT was measured at the following concentrations: 10 µM, 1 µM, 100 nM, 10 nM and 1 nM. […]
(§2) All experiments were performed in triplicate. […] The viral replication was measured by dosing the inverse transcriptase activation in the supernatant of the 7th day culture, using a dosing kit Retrosys(r), supplied by Innovagen (Lund, Sweden).

HIV-1-LAI strain [2] = assay: Antiviral activity assay on PBMCs infected by HIV isolates (reverse transcriptase in day 7 supernatant); assay type: cell-based; settings: Human immunodeficiency virus 1, PBMC
Protocol: Mononucleated cells were isolated from peripheral blood of a healthy donor (and seronegative for HIV and hepatitis viruses) with a gradient of Ficoll-Hypaque. The PBMCs were activated by […] of phytohemaglutinine-P (PHA-P, Difco Laboratories, Detroit, USA) during three days, then cultured at 200,000 cells per well in a 96-well plate, in a culture medium A, complemented by 20 IU/ml of recombinant interleukin-2 (rHuIL-2, Roche Products, Mannheim, Germany). Medium A consists of: RPMI cell culture (RPMI 1640, Roche Products), 10% Fetal Calf Serum (FCS, Roche Products complement inactivated by heating at 56°C for 45mn, 2mM L-glutamine (Roche Products) and a solution of three antibiotics (penicillin, streptomycin and neomycin (PSN, LifeTechnologies, Grand Island, JSA). During culture, cells were maintained at +37°C, in a saturated humid atmosphere, under 5% CO2.
PBMCs were infected over 1 hour at 37°C with a 10 000 tissue culture infectious dose 50% (TCID50) of the lymphocytary tropism reference strain HIV-1-LAI. At the end of the incubation, cells were washed twice with medium A. The HIV-1 strain was exclusively amplified, in the Neurovirology Service, with Umbilical Blood Mononucleated Cells (UBMC) activated with PHA-P, and the TCID50 was calculated using the Kärber formula.
The mimetic and the scrambled peptide were dissolved in ultrapure sterile water. Five concentrations were tested (50 µM, 10 µM, 5 µM, 1 µM and 0.5 µM). Antibodies ST40 and 9E8 (provided by the CNRS UMR 9921, Montpellier) were tested at the following concentrations: 100 µg/ml, 10 µg/ml, 1 µg/ml, 100 ng/ml and 10 ng/ml.
as §1, §2

human recombinant CD4 = target: T1, human recombinant CD4 (Homo sapiens, UniProt P01730); assay: BIAcore surface plasmon resonance kinetic analysis: binding of soluble CD4 to immobilized mimetic
T1 construct: purchased RepliGen (USA)
Protocol: The human recombinant CD4 used for the kinetic analysis and the biological assays was obtained from RepliGen (USA).
The kinetic parameters, association rate constant (ka) and dissociation rate constant (kd), were determined by surface plasmon resonance (SPR) analysis using BIACORE 2000 (Biacore AB, Uppsala, Sweden). ka and kd were determined using BIAevaluation 3.0 software (BIAcore AB). The apparent equilibrium constant KD is the ratio kd/ka. All experiments were carried out at 25°C.
The free SH group of the lysine side chain extended by a 3-mercaptopropionic acid linker of the mimetic was used to chemically immobilize molecules on a B1 sensor chip (BIAcore AB) following a standard PDEA/EDC/NHS procedure from BIAcore.
The binding kinetic of CD4 to immobilized mimetic was determined by injecting CD4 (1-20 µg/ml, 16-330 nM) in HBS buffer (running buffer) at a flow rate of 30 µl/min.

Structure (SMILES): CC[C@H](C)[C@H](NC(C)=O)C(=O)N[C@@H](Cc1c[nH]c2ccccc12)C(=O)N[C@H](C(=O)N[C@H]1CCCCNC(=O)CNC(=O)[C@H](Cc2c[nH]c3ccccc23)NC(=O)[C@H](C(C)C)NC(=O)[C@@H]2CCCN2C(=O)[C@H](CCCNC(=N)N)NC(=O)[C@H](C)NC(=O)[C@H](CC(N)=O)NC(=O)[C@@H]2CCCN2C(=O)[C@H](C)NC(=O)[C@H](CCCNC(=N)N)NC(=O)[C@@H]2CCCN2C(=O)CNC(=O)[C@H](Cc2ccc(O)cc2)NC(=O)[C@H](Cc2ccccc2)NC(=O)[C@H](CS)NC(=O)[C@H](CCCNC(=N)N)NC(=O)[C@H](CC(N)=O)NC(=O)[C@H](Cc2ccc(O)cc2)NC(=O)[C@@H]2CCCN2C(=O)[C@H](C(C)C)NC(=O)[C@H](Cc2c[nH]cn2)NC(=O)[C@@H]2CCCN2C(=O)[C@H](C)NC1=O)C(C)C [scrambled peptide] (Ac-IWVKAPHVPYNRCFYGPRAPNARPVWG; lactam 4-C)
anti-retroviral activity (in words) (HIV-1-LAI strain [1]): within the background noise

Structure (SMILES): Cc1cn([C@H]2C[C@H](N=[N+]=[N-])[C@@H](CO)O2)c(=O)[nH]c1=O [AZT]
inhibition at 0.001 µM (HIV-1-LAI strain [2]): 66 ± 5%
inhibition at 0.01 µM (HIV-1-LAI strain [2]): 74 ± 13%
inhibition at 0.1 µM (HIV-1-LAI strain [2]): 100%

kon (human recombinant CD4; immobilized mimetic and soluble CD4, 25°C, read-out: ka): 82600 M⁻¹ s⁻¹
Kd (human recombinant CD4; ratio kd/ka, read-out: calculated KD): 3.2 nM
Structure (SMILES): CC(=O)N[C@@H](C)C(=O)N[C@@H](CCCNC(=N)N)C(=O)N[C@@H](CCCNC(=N)N)C(=O)N1CCC[C@H]1C(=O)N[C@H]1CCCCNC(=O)[C@@H]2CCCN2C(=O)CNC(=O)[C@H](Cc2ccc(O)cc2)NC(=O)[C@H](C)NC(=O)[C@H](C(C)C)NC(=O)[C@H](Cc2c[nH]c3ccccc23)NC(=O)[C@@H]2CCCN2C(=O)CNC(=O)[C@H](Cc2c[nH]c3ccccc23)NC(=O)[C@H](C(C)C)NC(=O)[C@H](CC(N)=O)NC(=O)[C@@H]2CCCN2C(=O)[C@H](Cc2c[nH]cn2)NC(=O)[C@H](CC(N)=O)NC(=O)[C@H](CCCCNC(=O)CCS)NC(=O)[C@H](C(C)C)NC(=O)[C@H](Cc2ccc(O)cc2)NC(=O)[C@@H]2CCCN2C(=O)[C@H](C)NC(=O)[C@H](CCCNC(=N)N)NC(=O)[C@H](Cc2ccc(O)cc2)NC(=O)[C@H](Cc2ccccc2)NC1=O [Mk3Tyr-long1SH] (Ac-ARRPKFYRAPYVK(Mpa)NHPNVWGPWVAYGP; lactam 5-C)
